In brackets after ≈: the same amount, converted by molar mass. Activity calls are given as the source filed them. The rule behind the calls is not given here.
Assays:
[1] = system: Staphylococcus aureus; experiment: Antimicrobial activity against methicillin-resistant Staphylococcus aureus after 24 hrs by microdilution method; type: functional, organism-based
[2] = system: Staphylococcus aureus; experiment: Antimicrobial activity against methicillin-sensitive Staphylococcus aureus after 24 hrs by microdilution method; type: functional, organism-based
[3] = system: Micrococcus luteus; experiment: Antimicrobial activity against Micrococcus luteus after 24 hrs by microdilution method; type: functional
[4] = system: Pseudomonas aeruginosa; experiment: Antimicrobial activity against Pseudomonas aeruginosa after 24 hrs by microdilution method; type: functional, organism-based
[5] = system: Klebsiella pneumoniae; experiment: Antimicrobial activity against Klebsiella pneumoniae after 24 hrs by microdilution method; type: functional
[6] = system: Candida albicans; experiment: Antimicrobial activity against Candida albicans after 24 hrs by microdilution method; type: functional, organism-based
[7] = system: L929; experiment: (§1) Cytotoxicity against mouse L929 cells after 5 days by WST-1 assay; type: cell-based; conditions: for IC90: mouse, l929, 120 h
[8] = (§2) Cytotoxicity against human KB3-1 cells after 5 days by WST-1 assay; type: functional, cell-based, KB 3-1
[9] = system: KB 3-1; experiment: as §2; type: functional, cell-based
[10] = system: MCF7; experiment: Cytotoxicity against human MCF7 cells after 5 days by WST-1 assay; type: functional, cell-based
[11] = Cytotoxicity against human FS4-LTM cells after 24 hrs by WST-1 assay; type: cell-based; conditions: for IC90: human, 24 h
[12] = as §1; type: cell-based; conditions: mouse, L929 cells
[13] = Homo sapiens, KB 3-1, 120 h, read-out: IC50

Structure (SMILES) | MIC [1] | MIC [2] | MIC [3] | MIC [4] | MIC [5] | MIC [6] | IC50 ([7]; l929) | IC90 [7] | IC50 ([8]; kb 3-1) | IC90 [9] | IC90 [10] | IC50 ([10]; mcf7) | IC50 [11] | IC90 [11] | IC90 ([8]; Homo sapiens, KB 3-1, 120 h) [µM] | IC50 [8, 13] [µM] | IC90 at 120 h [12] [µM] | IC50 ([7]; Mus musculus, L929, 120 h, read-out: IC50) [µM] | IC90 ([10]; Homo sapiens, MCF7, 120 h) [µM] | IC50 ([10]; Homo sapiens, MCF7, 120 h, read-out: IC50) [µM]
C[n+]1cnc2[nH]c(=O)n(-c3nc(N)[nH]c3[C@@H]3[C@@H](CNC(=O)c4cc(Br)c[nH]4)[C@H](CNC(=O)c4cc(Br)c[nH]4)[C@H]3c3cnc(N)[nH]3)c2c1N | inactive | inactive | inactive | inactive | inactive | inactive | Not Active | Not Active | Not Active | inactive | inactive | Not Active | Not Active | Not Active |  |  |  |  |  | 
Nc1ncc([C@@H]2[C@@H](CNC(=O)c3ccc[nH]3)[C@H](CNC(=O)c3cc(Br)c[nH]3)[C@H]2c2cnc(N)[nH]2)[nH]1 | inactive | inactive | inactive | inactive | inactive | inactive | Not Active | Not Active |  |  | inactive | Not Active | Not Active | Not Active | 92 | 29 |  |  |  | 
Nc1ncc(/C=C/CNC(=O)c2cc(Br)c(Br)[nH]2)[nH]1 [OROIDIN] | inactive | inactive | inactive | inactive | inactive | inactive | Not Active | Not Active | Not Active | inactive | inactive | Not Active | Not Active | Not Active |  |  |  |  |  | 
NCCC(=O)c1cccc2c1N[C@H](CNC(=O)c1cc(Br)c(Br)[nH]1)[C@@H](c1cnc(N)[nH]1)O2 | inactive | inactive | inactive | inactive | inactive | inactive | Not Active | Not Active |  |  | inactive | Not Active | Not Active | Not Active | ≥ 130 | 44 |  |  |  | 
Nc1ncc([C@@H]2[C@@H](CNC(=O)c3cc(Br)c[nH]3)[C@H](CNC(=O)c3cc(Br)c[nH]3)[C@H]2c2cnc(N)[nH]2)[nH]1 | inactive | inactive | 32 µM (≈ 19.8 µg/mL) | inactive | 32 µM (≈ 19.8 µg/mL) | inactive |  |  |  |  |  |  | Not Active | Not Active | 2390 | 80 | ≥ 238 | 193 | ≥ 238 | 238
